Experimental data from patent US9005575B2, “Arg-Gly-Asp-conjugated alpha-melanocyte stimulating hormone hybrid peptide for use in diagnosing and treating melanoma, including metastatic melanoma and methods related to same” (STC.UNM, priority 2009, dated 2015).
Like-named read-outs stand apart in the source and are kept apart here. Positions of bridges follow the written chain, without caps; N, C: chain ends. Non-standard residues stand in square brackets, D forms with d. Residues, ends and D or L forms follow the SMILES beside them.

Assay: Biodistribution in B16/F1 melanoma-bearing C57 mice
Type: in vivo
Details: female, C57, mouse, iv, total radioactivity; for tissue uptake at 0.5 h / tissue to tissue ratio at 0.5 h: 0.5 h post-injection; for tissue uptake at 2 h / tissue to tissue ratio at 2 h: 2 h post-injection; for tissue uptake at 4 h / tissue to tissue ratio at 4 h: 4 h post-injection; for tissue uptake at 24 h / tissue to tissue ratio at 24 h: 24 h post-injection
Procedure: All the animal studies were conducted in compliance with Institutional Animal Care and Use Committee approval. The pharmacokinetics of ^99mTc-RGD-Lys-(Arg^11)CCMSH was determined in B16/F1 melanoma-bearing C57 female mice (Harlan, Indianapolis, Ind.). C57 mice were subcutaneously inoculated on the right flank with 1×10^6 B16/F1 cells. The weight of tumors reached approximately 0.2 g 10 days post cell inoculation. Each melanoma-bearing mouse was injected with 0.037 MBq of ^99mTc-RGD-Lys-(Arg^11)CCMSH via the tail vein. Groups of 5 mice were sacrificed at 0.5, 2, 4 and 24 h post-injection, and tumors and organs of interest were harvested, weighed and counted. Blood values were taken as 6.5% of the whole-body weight. The MC1 receptor specificity of the tumor uptake was determined at 2 h post-injection by co-injecting ^99mTc-RGD-Lys-(Arg^11)CCMSH with 10 μg (6.1 nmol) of unlabeled NDP-MSH, a linear α-MSH peptide analogue with picomolar affinity for the MC1 receptors present on murine melanoma cells. The co-injection of 3.5 μg (6.1 nmol) of RGD peptide was performed to determine the αvβ3 integrin specificity of the tumor uptake 2 h post-injection. Statistical analysis was performed using the Student's t-test for unpaired data.
All the animal studies were conducted in compliance with Institutional Animal Care and Use Committee approval. The pharmacokinetics of ^99mTc-RGD-Arg-(Arg^11)CCMSH was determined in B16/F1 melanoma-bearing C57 female mice (Harlan, Indianapolis, Ind.). C57 mice were subcutaneously inoculated on the right flank with 1×10^6 B16/F1 cells. The weight of tumors reached approximately 0.2 g 10 days post cell inoculation. Each melanoma-bearing mouse was injected with 0.037 MBq of ^99mTc-RGD-Arg-(Arg^11)CCMSH via the tail vein. Groups of 5 mice were sacrificed at 0.5, 2, 4 and 24 h post-injection, and tumors and organs of interest were harvested, weighed and counted. Blood values were taken as 6.5% of the whole-body weight. The MC1 receptor specificity of the tumor uptake was determined at 2 h post-injection by co-injecting ^99mTc-RGD-Arg-(Arg^11)CCMSH with 10 μg (6.1 nmol) of unlabeled NDP-MSH. The co-injection of 3.5 μg (6.1 nmol) of RGD peptide was performed to determine the αvβ3 integrin specificity of the tumor uptake at 2 h post-injection.

[1] = pancreas, 0.037 MBq, read-out: Pancreas, Percentage Injected Dose/gram
[2] = skin, 0.037 MBq, read-out: Skin, Percentage Injected Dose/gram
[3] = spleen, 0.037 MBq, read-out: Spleen, Percentage Injected Dose/gram
[4] = stomach, 0.037 MBq, read-out: Stomach, Percentage Injected Dose/gram
[5] = tumor, 0.037 MBq, read-out: Tumor, Percentage Injected Dose/gram
[6] = tumor/blood, 0.037 MBq, read-out: Uptake Ratio Tumor/Blood
[7] = tumor/kidneys, 0.037 MBq, read-out: Uptake Ratio Tumor/Kidneys
[8] = tumor/liver, 0.037 MBq, read-out: Uptake Ratio Tumor/Liver
[9] = tumor/lung, 0.037 MBq, read-out: Uptake Ratio Tumor/Lung
[10] = tumor/muscle, 0.037 MBq, read-out: Uptake Ratio Tumor/Muscle

- tissue uptake (normal organs except kidneys, 0.037 MBq, after 2 h post-injection, read-out: Normal organ uptakes except for the kidneys): < 3.2 %ID/g
- tissue uptake at 0.5 h [1]: 1.48 ± 1.24 %ID/g
- tissue uptake at 2 h [1]: 0.72 ± 0.53 %ID/g
- tissue uptake at 4 h [1]: 0.52 ± 0.41 %ID/g
- tissue uptake at 24 h [1]: 0.25 ± 0.06 %ID/g
- tissue uptake at 2 h (pancreas, NDP blockade (10 μg NDP-MSH co-injected), read-out: Pancreas, Percentage Injected Dose/gram): 0.44 ± 0.37 %ID/g
- tissue uptake at 2 h (pancreas, RGD blockade (3.5 μg RGD co-injected), read-out: Pancreas, Percentage Injected Dose/gram): 0.35 ± 0.19 %ID/g
- tissue uptake at 0.5 h [2]: 4.53 ± 0.88 %ID/g
- tissue uptake at 2 h [2]: 1.52 ± 0.66 %ID/g
- tissue uptake at 4 h [2]: 1.17 ± 0.61 %ID/g
- tissue uptake at 24 h [2]: 0.78 ± 0.19 %ID/g
- tissue uptake at 2 h (skin, NDP blockade (10 μg NDP-MSH co-injected), read-out: Skin, Percentage Injected Dose/gram): 1.14 ± 0.38 %ID/g
- tissue uptake at 2 h (skin, RGD blockade (3.5 μg RGD co-injected), read-out: Skin, Percentage Injected Dose/gram): 0.81 ± 0.13 %ID/g
- tissue uptake at 0.5 h [3]: 2.18 ± 0.88 %ID/g
- tissue uptake at 2 h [3]: 1.23 ± 0.62 %ID/g
- tissue uptake at 4 h [3]: 1.14 ± 0.16 %ID/g
- tissue uptake at 24 h [3]: 0.88 ± 0.3 %ID/g
- tissue uptake at 2 h (spleen, NDP blockade (10 μg NDP-MSH co-injected), read-out: Spleen, Percentage Injected Dose/gram): 0.75 ± 0.37 %ID/g
- tissue uptake at 2 h (spleen, RGD blockade (3.5 μg RGD co-injected), read-out: Spleen, Percentage Injected Dose/gram): 0.94 ± 0.3 %ID/g
- tissue uptake at 0.5 h [4]: 7.61 ± 1.98 %ID/g
- tissue uptake at 2 h [4]: 2.57 ± 0.38 %ID/g
- tissue uptake at 4 h [4]: 2.46 ± 1.39 %ID/g
- tissue uptake at 24 h [4]: 0.91 ± 0.67 %ID/g
- tissue uptake at 2 h (stomach, NDP blockade (10 μg NDP-MSH co-injected), read-out: Stomach, Percentage Injected Dose/gram): 2.43 ± 0.8 %ID/g
- tissue uptake at 2 h (stomach, RGD blockade (3.5 μg RGD co-injected), read-out: Stomach, Percentage Injected Dose/gram): 2.64 ± 0.1 %ID/g
- tissue uptake at 0.5 h [5]: 11.1 ± 1.41 %ID/g
- tissue uptake at 2 h [5]: 14.8 ± 2.94 %ID/g
- tissue uptake at 4 h [5]: 12.6 ± 2.53 %ID/g
- tissue uptake at 24 h [5]: 7.59 ± 2.04 %ID/g
- tissue uptake at 2 h (tumor, NDP blockade (10 μg NDP-MSH co-injected), read-out: Tumor, Percentage Injected Dose/gram): 1.81 ± 0.64 %ID/g
- tissue uptake at 2 h (tumor, RGD blockade (3.5 μg RGD co-injected), read-out: Tumor, Percentage Injected Dose/gram): 10.5 ± 1.18 %ID/g
- tissue to tissue ratio at 0.5 h [6]: 3.48
- tissue to tissue ratio at 2 h [6]: 15.4
- tissue to tissue ratio at 4 h [6]: 25.1
- tissue to tissue ratio at 24 h [6]: 69
- tissue to tissue ratio at 2 h (tumor/blood, NDP blockade (10 μg NDP-MSH co-injected), read-out: Uptake Ratio Tumor/Blood): 5.66
- tissue to tissue ratio at 2 h (tumor/blood, RGD blockade (3.5 μg RGD co-injected), read-out: Uptake Ratio Tumor/Blood): 19.8
- tissue to tissue ratio at 0.5 h [7]: 0.16
- tissue to tissue ratio at 2 h [7]: 0.22
- tissue to tissue ratio at 4 h [7]: 0.18
- tissue to tissue ratio at 24 h [7]: 0.19
- tissue to tissue ratio at 2 h (tumor/kidneys, NDP blockade (10 μg NDP-MSH co-injected), read-out: Uptake Ratio Tumor/Kidneys): 0.03
- tissue to tissue ratio at 2 h (tumor/kidneys, RGD blockade (3.5 μg RGD co-injected), read-out: Uptake Ratio Tumor/Kidneys): 0.19
- tissue to tissue ratio at 0.5 h [8]: 2.75
- tissue to tissue ratio at 2 h [8]: 4.68
- tissue to tissue ratio at 4 h [8]: 4.32
- tissue to tissue ratio at 24 h [8]: 4.39
- tissue to tissue ratio at 2 h (tumor/liver, NDP blockade (10 μg NDP-MSH co-injected), read-out: Uptake Ratio Tumor/Liver): 0.63
- tissue to tissue ratio at 2 h (tumor/liver, RGD blockade (3.5 μg RGD co-injected), read-out: Uptake Ratio Tumor/Liver): 4.63
- tissue to tissue ratio at 0.5 h [9]: 2.08
- tissue to tissue ratio at 2 h [9]: 11.8
- tissue to tissue ratio at 4 h [9]: 11.8
- tissue to tissue ratio at 24 h [9]: 8.07
- tissue to tissue ratio at 2 h (tumor/lung, NDP blockade (10 μg NDP-MSH co-injected), read-out: Uptake Ratio Tumor/Lung): 1.38
- tissue to tissue ratio at 2 h (tumor/lung, RGD blockade (3.5 μg RGD co-injected), read-out: Uptake Ratio Tumor/Lung): 9.38
- tissue to tissue ratio at 0.5 h [10]: 29.1
- tissue to tissue ratio at 2 h [10]: 43.6
- tissue to tissue ratio at 4 h [10]: 96.7
- tissue to tissue ratio at 24 h [10]: 33
- tissue to tissue ratio at 2 h (tumor/muscle, NDP blockade (10 μg NDP-MSH co-injected), read-out: Uptake Ratio Tumor/Muscle): 8.62
- tissue to tissue ratio at 2 h (tumor/muscle, RGD blockade (3.5 μg RGD co-injected), read-out: Uptake Ratio Tumor/Muscle): 70
Compound: CC(C)[C@H](NC(=O)[C@@H]1CCCN1C(=O)[C@H](CCCNC(=N)N)NC(=O)[C@H](CS)NC(=O)[C@H](Cc1c[nH]c2ccccc12)NC(=O)[C@H](CCCNC(=N)N)NC(=O)[C@@H](Cc1ccccc1)NC(=O)[C@H](Cc1c[nH]cn1)NC(=O)[C@H](CCC(=O)O)NC(=O)[C@H](CS)NC(=O)[C@H](CS)NC(=O)[C@H](CCCCN)NC(=O)[C@@H]1CC(=O)N[C@@H](CCCNC(=N)N)C(=O)NCC(=O)N[C@@H](CC(=O)O)C(=O)N[C@H](Cc2ccc(O)cc2)C(=O)N1)C(N)=O [^99mTc-RGD-Lys-(Arg^11)CCMSH, metal not drawn] (RGD[dY]DKCCEH[dF]RWCRPV-NH2; lactam N-5)
